Reference: ChEMBL document CHEMBL5338754, “Identification of Binding Sites in the Nucleotide-Binding Domain of P-Glycoprotein for a Potent and Nontoxic Modulator, the Amine-Containing Monomeric Flavonoid FM04” (J Med Chem, 2023)

How the values were obtained:
Assay type in all cases: cell-based
Settings in all cases: 2.5 h
[1] = target: ATP-dependent translocase ABCB1 (Homo sapiens, UniProt P08183, Q1193K); assay: Negative allosteric modulator activity at human P-gp Q1193K mutant expressed in HEK293FT cells assessed as increase in intracellular doxorubicin accumulation using doxorubicin as substrate at 1 uM incubated for 150 mins by microplate reader assay (reference value: 69.1 +/- 1 %)
Chain of ATP-dependent translocase ABCB1 (Homo sapiens, UniProt P08183, Q1193K) (P08183 whole entry Q1193K): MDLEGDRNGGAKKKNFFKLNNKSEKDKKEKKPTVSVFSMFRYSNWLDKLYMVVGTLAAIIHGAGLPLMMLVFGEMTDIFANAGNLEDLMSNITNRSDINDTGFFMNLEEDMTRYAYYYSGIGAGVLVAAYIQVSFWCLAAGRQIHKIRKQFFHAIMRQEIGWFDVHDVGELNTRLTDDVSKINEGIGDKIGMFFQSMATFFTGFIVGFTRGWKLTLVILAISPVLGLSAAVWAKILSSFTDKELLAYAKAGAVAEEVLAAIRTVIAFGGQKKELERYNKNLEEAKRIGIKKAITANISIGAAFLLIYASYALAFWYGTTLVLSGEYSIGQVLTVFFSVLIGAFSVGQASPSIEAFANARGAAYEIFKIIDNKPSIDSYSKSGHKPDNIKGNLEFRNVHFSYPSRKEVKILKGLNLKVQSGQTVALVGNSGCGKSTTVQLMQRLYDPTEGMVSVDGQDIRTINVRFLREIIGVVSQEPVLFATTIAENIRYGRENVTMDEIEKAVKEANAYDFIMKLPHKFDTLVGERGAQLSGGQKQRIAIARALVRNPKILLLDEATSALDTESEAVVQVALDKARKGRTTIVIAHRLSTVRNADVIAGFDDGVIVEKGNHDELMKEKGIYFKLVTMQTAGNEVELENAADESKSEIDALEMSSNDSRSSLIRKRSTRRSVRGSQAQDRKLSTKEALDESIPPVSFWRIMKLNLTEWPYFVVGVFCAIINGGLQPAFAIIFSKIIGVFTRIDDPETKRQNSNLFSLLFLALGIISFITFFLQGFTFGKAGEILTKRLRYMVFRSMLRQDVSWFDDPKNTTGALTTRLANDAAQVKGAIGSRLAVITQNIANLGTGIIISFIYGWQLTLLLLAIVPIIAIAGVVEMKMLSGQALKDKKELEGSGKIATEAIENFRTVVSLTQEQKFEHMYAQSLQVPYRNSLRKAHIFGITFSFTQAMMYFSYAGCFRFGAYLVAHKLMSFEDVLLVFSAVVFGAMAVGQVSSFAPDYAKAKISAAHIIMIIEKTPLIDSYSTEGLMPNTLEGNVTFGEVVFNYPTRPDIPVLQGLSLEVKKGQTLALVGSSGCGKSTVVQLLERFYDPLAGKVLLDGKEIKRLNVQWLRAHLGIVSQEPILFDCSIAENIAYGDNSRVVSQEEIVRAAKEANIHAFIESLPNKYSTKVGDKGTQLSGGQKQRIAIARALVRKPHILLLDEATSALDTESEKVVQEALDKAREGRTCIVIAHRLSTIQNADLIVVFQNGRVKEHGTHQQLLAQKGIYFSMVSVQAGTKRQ

[2] = target: ATP-dependent translocase ABCB1 (Homo sapiens, UniProt P08183, I1115N); assay: Negative allosteric modulator activity at human P-gp I1115N mutant expressed in HEK293FT cells assessed as fold change in intracellular doxorubicin accumulation using doxorubicin as substrate at 1 uM incubated for 150 mins by microplate reader assay relative to DMSO
Chain of ATP-dependent translocase ABCB1 (Homo sapiens, UniProt P08183, I1115N) (P08183 whole entry I1115N): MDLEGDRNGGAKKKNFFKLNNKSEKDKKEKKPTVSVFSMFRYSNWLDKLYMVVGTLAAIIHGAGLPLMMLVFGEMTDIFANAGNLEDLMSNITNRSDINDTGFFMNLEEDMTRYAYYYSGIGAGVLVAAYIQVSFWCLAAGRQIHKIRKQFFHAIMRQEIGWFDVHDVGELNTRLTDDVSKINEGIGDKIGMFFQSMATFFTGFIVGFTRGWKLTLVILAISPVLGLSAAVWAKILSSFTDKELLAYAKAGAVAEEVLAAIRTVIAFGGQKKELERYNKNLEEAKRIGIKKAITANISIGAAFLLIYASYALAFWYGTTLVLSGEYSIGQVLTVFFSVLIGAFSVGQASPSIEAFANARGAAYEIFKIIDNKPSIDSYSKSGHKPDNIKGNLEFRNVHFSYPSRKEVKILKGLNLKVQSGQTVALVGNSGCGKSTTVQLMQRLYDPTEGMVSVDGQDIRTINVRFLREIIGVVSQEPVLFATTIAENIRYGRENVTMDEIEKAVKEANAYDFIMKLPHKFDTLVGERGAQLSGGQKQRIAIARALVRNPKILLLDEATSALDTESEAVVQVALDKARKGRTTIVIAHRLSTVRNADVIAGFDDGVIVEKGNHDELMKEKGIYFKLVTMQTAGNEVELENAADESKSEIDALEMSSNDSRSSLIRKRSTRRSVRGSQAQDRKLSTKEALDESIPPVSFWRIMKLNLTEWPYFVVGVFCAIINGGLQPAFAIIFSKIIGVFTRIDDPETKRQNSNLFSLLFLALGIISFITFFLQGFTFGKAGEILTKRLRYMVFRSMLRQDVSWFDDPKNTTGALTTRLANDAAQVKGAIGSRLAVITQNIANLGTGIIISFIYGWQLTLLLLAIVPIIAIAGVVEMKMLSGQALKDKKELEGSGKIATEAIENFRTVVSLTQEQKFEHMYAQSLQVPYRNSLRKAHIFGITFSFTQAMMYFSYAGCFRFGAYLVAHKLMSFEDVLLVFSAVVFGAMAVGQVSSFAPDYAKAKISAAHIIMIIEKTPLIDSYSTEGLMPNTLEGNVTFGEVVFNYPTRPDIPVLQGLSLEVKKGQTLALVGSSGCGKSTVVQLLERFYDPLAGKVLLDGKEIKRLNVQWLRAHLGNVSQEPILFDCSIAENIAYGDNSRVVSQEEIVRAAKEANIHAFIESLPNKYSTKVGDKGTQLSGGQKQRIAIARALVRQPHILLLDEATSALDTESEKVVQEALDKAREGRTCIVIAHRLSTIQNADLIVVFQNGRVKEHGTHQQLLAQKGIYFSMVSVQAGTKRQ

[3] = target: ATP-dependent translocase ABCB1 (Homo sapiens, UniProt P08183, H1195A); assay: Negative allosteric modulator activity at human P-gp H1195A mutant expressed in HEK293FT cells assessed as increase in intracellular doxorubicin accumulation using doxorubicin as substrate at 1 uM incubated for 150 mins by microplate reader assay (reference value: 78.1 +/- 1.4 %)
Chain of ATP-dependent translocase ABCB1 (Homo sapiens, UniProt P08183, H1195A) (P08183 whole entry H1195A): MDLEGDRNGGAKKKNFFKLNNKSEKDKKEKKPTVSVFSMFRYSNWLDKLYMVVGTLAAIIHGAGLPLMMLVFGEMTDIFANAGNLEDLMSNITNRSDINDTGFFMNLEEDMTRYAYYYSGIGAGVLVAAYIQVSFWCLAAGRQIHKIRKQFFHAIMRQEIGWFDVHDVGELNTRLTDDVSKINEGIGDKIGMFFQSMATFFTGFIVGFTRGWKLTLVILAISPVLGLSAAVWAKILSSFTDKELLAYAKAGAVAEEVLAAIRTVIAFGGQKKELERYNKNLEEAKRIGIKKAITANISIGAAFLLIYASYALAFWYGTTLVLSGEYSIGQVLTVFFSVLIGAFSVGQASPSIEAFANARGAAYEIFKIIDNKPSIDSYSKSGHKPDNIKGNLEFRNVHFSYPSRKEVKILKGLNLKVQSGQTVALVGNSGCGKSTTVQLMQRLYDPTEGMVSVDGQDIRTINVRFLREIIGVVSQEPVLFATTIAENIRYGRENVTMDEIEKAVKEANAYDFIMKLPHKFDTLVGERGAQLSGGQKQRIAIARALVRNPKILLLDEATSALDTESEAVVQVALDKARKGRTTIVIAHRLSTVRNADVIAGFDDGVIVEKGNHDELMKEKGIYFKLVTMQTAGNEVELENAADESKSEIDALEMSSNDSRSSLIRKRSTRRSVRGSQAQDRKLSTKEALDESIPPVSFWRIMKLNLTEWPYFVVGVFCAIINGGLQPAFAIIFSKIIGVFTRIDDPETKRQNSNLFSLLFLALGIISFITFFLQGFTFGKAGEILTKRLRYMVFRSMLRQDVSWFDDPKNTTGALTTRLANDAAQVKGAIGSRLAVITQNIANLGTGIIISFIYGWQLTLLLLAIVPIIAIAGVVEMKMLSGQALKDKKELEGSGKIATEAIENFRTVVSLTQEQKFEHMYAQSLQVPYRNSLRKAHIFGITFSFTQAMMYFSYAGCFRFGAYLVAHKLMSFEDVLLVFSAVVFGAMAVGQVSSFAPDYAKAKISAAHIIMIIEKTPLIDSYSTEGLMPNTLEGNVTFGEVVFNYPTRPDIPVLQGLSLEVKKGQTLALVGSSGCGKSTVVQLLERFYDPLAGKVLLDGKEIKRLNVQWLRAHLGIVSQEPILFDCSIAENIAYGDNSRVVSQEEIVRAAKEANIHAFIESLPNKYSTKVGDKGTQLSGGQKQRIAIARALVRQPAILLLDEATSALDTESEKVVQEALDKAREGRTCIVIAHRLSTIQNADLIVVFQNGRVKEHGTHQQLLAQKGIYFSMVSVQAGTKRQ

Activity [1]: 87.8% | fold change (FC) [2]: 1 | Activity [3]: 83.9%
Structure (SMILES): O=c1cc(-c2ccc(OCCOCCNCc3ccccc3)cc2)oc2ccccc12
